Assay results reported in article PMC12670160, “A drug-repurposing screen of FDA- and EMA-approved drugs identifies two NF-κB inhibitors active against eumycetoma” (Journal of Antimicrobial Chemotherapy, 2025).
In brackets after ≈: the same amount, converted by molar mass. Entries after “also recorded” stand apart in the source; their conditions may differ. Counter-ions that a name gives are not always drawn.

Legend:
M. mycetomatis [1] = system: M. mycetomatis; design: method as in PMID 34209118; details: in vitro; cited from earlier work
[2] = system: M. mycetomatis strain mm55; assay: IC50 and MIC determination, CellTiter-Glo, strain mm55; type: cell-based, Madurella mycetomatis; details: Madurella mycetomatis; for IC50: concentration inhibiting 50% of fungal hyphae growth; for MIC: concentration with complete growth inhibition
[3] = system: M. mycetomatis mouse model; design: method as in PMID 26150103; details: cited from earlier work
[4] = system: M. mycetomatis-infected G. mellonella larvae; details: M. mycetomatis-infected G. mellonella larvae; cited from earlier work
M. mycetomatis [5] = system: M. mycetomatis; design: method as in PMID 35398930, PMID 15793113, PMID 36005544, PMID 34181477, PMID 22964246; details: against M. mycetomatis; cited from earlier work
M. mycetomatis strain P1 = assay: IC50 and MIC determination, CellTiter-Glo, strain P1; type: cell-based, Madurella mycetomatis; details: Madurella mycetomatis, P1
M. mycetomatis strain I1 = assay: IC50 and MIC determination, CellTiter-Glo, strain I1; type: cell-based, Madurella mycetomatis; details: Madurella mycetomatis, I1
M. mycetomatis [6] = assay: In vitro susceptibility, averages over M. mycetomatis isolates (average metabolic activity at 2 µM, mean MIC); type: cell-based; details: Madurella mycetomatis, 96 h, 4 days at 37°C, CellTiter-Glo, average of 3 isolates, 20% or below = inhibition
eumycetoma = details: cited from earlier work
[7] = system: M. mycetomatis MM55-infected G. mellonella larvae; assay: Therapeutic efficacy in M. mycetomatis-infected G. mellonella larvae (survival, log-rank); type: in vivo, Galleria mellonella; details: 20 µL of 20 µM at 4, 28 and 52 h post infection; 10 days
Protocol: (§1) For in vivo experiments, sixth-week instar G. mellonella larvae were purchased from Blue-Lagoon, Maassluis, The Netherlands. The larvae were raised and kept in the dark at room temperature. Larvae without any discoloration and weighing around 500 mg were selected for experiments.
The wet weight was determined and 10 mL of PBS per gram of mycelia was added. The suspension was then sonicated for 2 min to achieve a particle size of 10 µm. The fungal suspension (4 mg/40 µL) was injected into the last left pro-leg of a healthy G. mellonella larva with an insulin 29G U-100 needle to reach a final inoculum of 4 mg/larva. Larvae were placed in Petri dishes containing Whatman paper in a 37°C incubator.
A control group was also included in which M. mycetomatis-infected larvae were treated with PBS or with 1 mg/kg amphotericin B (Fungizone, Bristol Myers Squibb, Utrecht, The Netherlands). […] The treatment was repeated at 28 h post infection and 52 h post infection via different prolegs. The infection was monitored for 10 days.
To compare the survival rates between PBS treatment control and the different experimental groups a log-rank test was performed. All data were processed and performed in GraphPad Prism 10.

Rhodnius prolixus = system: Rhodnius prolixus; design: method as in PMID 30233391; details: insect vector Rhodnius prolixus; cited from earlier work
[8] = system: healthy uninfected G. mellonella larvae; details: 20 µL of 20 µM injected
Protocol: as §1
To determine the toxicity, 15 healthy uninfected larvae were injected with 20 µL of 20 µM compound as previously described.[16] […] As a control, a separate group of larvae were injected with 20 µL of PBS. Larvae were housed in Petri dishes with Whatman paper at 37°C in the dark. Survival was monitored for 10 days.

[9] = system: vancomycin-resistant Staphylococcus aureus strains; details: cited from earlier work
[10] = system: primary human neutrophils exposed to C. albicans; design: method as in PMID 19609651; details: cited from earlier work

SMILES | IC50 [2] [µM] | MIC [2] [µM] | IC50 (M. mycetomatis strain P1) [µM] | MIC (M. mycetomatis strain P1) [µM] | IC50 (M. mycetomatis strain I1) [µM] | MIC (M. mycetomatis strain I1) [µM] | activity at 2 µM (M. mycetomatis [6]) [%] | further results
O=C(Nc1ccc([N+](=O)[O-])cc1Cl)c1cc(Cl)ccc1O [niclosamide] | – | – | – | – | – | – | – | activity against M. mycetomatis (M. mycetomatis [1]): active
CCC(C)n1ncn(-c2ccc(N3CCN(c4ccc(OCC5COC(Cn6cncn6)(c6ccc(Cl)cc6Cl)O5)cc4)CC3)cc2)c1=O (stereo not shown) [Itraconazole hydrochloride] | 1.58 | 2 | 0.84 | 2 | 0.78 | 1 | 6.1 | activity in M. mycetomatis mouse model [3]: lack of activity; larval survival [4]: No prolonged larval survival; MIC50 (M. mycetomatis [5]): 0.06 µg/mL; lesion size or β-glucan levels (eumycetoma; 400 mg/day, first 6 months of treatment): no reduction; cure rate (eumycetoma; itraconazole combined with surgery, clinical trial setting): 80%
O=C(Nc1cc(C(F)(F)F)cc(C(F)(F)F)c1)c1cc(Cl)ccc1O [IKK2 inhibitor V (IMD-0354), IMD-0354] | 1.76 | 2 (≈ 0.767 µg/mL) | 0.17 | 0.25 (≈ 0.0959 µg/mL) | 1.68 | 2 (≈ 0.767 µg/mL) | 2.3 | Survival of M. mycetomatis-infected larvae versus PBS [7]: prolonged the survival; also recorded: prolonged larval survival; expression of antimicrobial peptides (Rhodnius prolixus): decreased; mortality after Trypanosoma cruzi infection (Rhodnius prolixus): reduced mortality; Toxicity in G. mellonella larvae at 20 µM ([8]; 10 day observation, toxic if more than 20% of larvae died): not toxic; larval survival ([8]; 10 days, uninfected larvae): above 80%; MIC ([9]; Gram-positive vancomycin-resistant Staphylococcus aureus strains): 0.06 µg/mL (≈ 0.156 µM); biofilm formation ([9]; vancomycin-resistant staphylococci): able to inhibit biofilm formation
Cc1ccc(S(=O)(=O)/C=C/C#N)cc1 [bay117082] | – | – | – | – | – | – | – | chemotaxis, phagocytosis and killing activity of neutrophils [10]: able to reduce
